# Measured values taken from patent US20090281054A1, “COMPOSITIONS AND METHODS COMPRISING CAPURAMYCIN ANALOGUES” (priority 2008, published 2009).
# Columns and labels:
# [1] = biological target: translocase I (Escherichia coli, UniProt P0A6W3); experiment: IC50 against translocase I; type: biochemical
# [2] = system: Mycobacterium tuberculosis (MTB); experiment: MIC by BACTEC radiometric method; type: cell-based
# Description: Determination of MIC. MIC of drugs for laboratory and clinical strains of Mycobacterium tuberculosis (MTB) was determined by BACTEC radiometric method as described by Heifets (1991), “Antituberculosis Drugs: Antimicrobial Activity in vitro, Drug Susceptibility in the Chemotherapy of Microbacterial Infections, Boca Raton, Fla., CRC Press and Luna-Herrera et al., Antimicrob. Agents and Chemother. 1995, 39(2), 440-444. […] The minimal inhibitory concentration (MIC) was defined as the lowest concentrations of drug that caused GI equal to or less than that of the 1/100 dilution growth control. Capuramycin analogues SQ641, SQ922 and SQ997 were tested at concentrations ranging from […].
# [3] = system: MSMG and MTB (H37Rv); experiment: Minimum bactericidal concentration (MBC), MBC/MIC ratio; type: cell-based, Mycobacterium tuberculosis; M. smegmatis
# [4] = system: MTB cultures; experiment: Induction of morphological changes and bacterial disintegration; type: cell-based, Mycobacterium tuberculosis
# From the text: Induction of morphological changes and bacterial disintegration. […] Tubercle bacilli exposed to CM analogues were typically club-shaped, with deeply stained swollen ends (see Reddy et al. Antimicrob. Agents Chemother., 2008, 52(2), 719-721).
# [5] = system: MTB-H37Rv; experiment: Post-antibiotic effect (PAE); type: cell-based, Mycobacterium tuberculosis
# Description: PAE of SQ641. PAE of SQ641 was determined as described (Chan et al. Antimicrob. Agents Chemother., 2004, 48(1), 340-343). At the end of incubation, suspensions were diluted 1/25, and 0.1 ml was injected into each of triplicate BACTEC vials: drug dilution was 1000-fold in the BACTEC vials. Drug carryover controls (to ascertain absence of any carryover drug) consisting of the same MTB suspension as in the test and similar drug dilutions were mixed immediately, diluted 1/25, and 0.1 ml was injected into BACTEC vials. BACTEC vials were incubated at 37° C. and read in a BACTEC TB-460 reader every 24 hr until the cumulative GI in the control reached 999. PAE was calculated from the formula PAE=T−C, where T is the time required for the drug-exposed organisms to reach a cumulative GI of 100 and C is the time required for the controls to reach a cumulative GI of 100.
# PAE determines the time required for the organisms to recover following exposure to an antimicrobial agent for a short duration. PAE activities of both SQ641 and INH, each at 4 μg/ml, were investigated with MTB-H37Rv. Following 2 hr of exposure to drugs, the PAE of INH was 17 hr as compared to 55 hr for SQ641. The PAE of SQ641 was over 3 times that of INH.
# [6] = system: M. abscessus; experiment: Synergy by checkerboard titration (microdilution); type: cell-based
# [7] = system: MTB; experiment: Synergy by checkerboard titration (microdilution); type: cell-based, Mycobacterium tuberculosis
# Description: Synergistic activity with other anti-TB drugs against MSMG, MTB, MAB, and MAC. Synergy with other anti-mycobacterial drugs was determined in two drug combinations by checkerboard titration using a microdilution method. Fractional inhibitory concentration (FIC) is the MIC in combination divided by the MIC of individual drug. An FIC index (ΣFIC) of ≦0.5 indicates synergistic activity, ≧4.0 antagonistic activity and in between, additive effect. Synergistic activity was determined against MSMG, MTB, MAB and MAC. All the three CM analogues were tested in combination with INH, RIF, EMB and SM against MSMG. Similarly, all the three CM analogues were tested in combination with INH, EMB, SM and SQ109 against MTB. Only SQ641 was tested in combination with EMB, clarithromycin (CLA) and amikacin (AMK) against MAC.
# [8] = system: MTB in J774 cells; experiment: Intracellular activity of amino acid conjugates; type: cell-based, Mycobacterium tuberculosis; settings: day 0 RLU 775, Control day 7 31700
# Description: The amino acid conjugates were tested at concentrations of 4 mg/mL and 8 mg/mL compared with a control and isoniazid (INH).
# The intracellular activity against MTB by capuramycin amino acid derivatives was tested. Cells J774 were infected with MTB and treated for 7 days with the amino acid derivative. The mean Relative Light Unites (RLU), an estimation of bacterial viability, was measured as described in Snewin et al., Infect. Immun., 1999, 67(9), 4586-4593).
# [9] = system: MTB; experiment: In vivo efficacy in mouse model of chronic TB disease (lung CFU); settings: mice treated for 3 wk, starting 3 wk after infection, gav, ip, iv
# Description: In vivo activity against MTB. In vivo efficacy of CM analogues was investigated in a mouse model of chronic TB disease (FIG. 2). Three wk after infection, mice were treated for 3 wk with the drugs by gavage (gav), intraperitoneal injection (ip), intravenous injection (iv), or intranasal (in) routes. Efficacy was analyzed by determining Colony-Forming Units (CFU) in lungs. […] Each achieved a decrease of 1-log10 lung CFU compared to the late control [LC] CFU by at least one route, which varied for each drug.
# Sequence of translocase I (P0A6W3 whole entry): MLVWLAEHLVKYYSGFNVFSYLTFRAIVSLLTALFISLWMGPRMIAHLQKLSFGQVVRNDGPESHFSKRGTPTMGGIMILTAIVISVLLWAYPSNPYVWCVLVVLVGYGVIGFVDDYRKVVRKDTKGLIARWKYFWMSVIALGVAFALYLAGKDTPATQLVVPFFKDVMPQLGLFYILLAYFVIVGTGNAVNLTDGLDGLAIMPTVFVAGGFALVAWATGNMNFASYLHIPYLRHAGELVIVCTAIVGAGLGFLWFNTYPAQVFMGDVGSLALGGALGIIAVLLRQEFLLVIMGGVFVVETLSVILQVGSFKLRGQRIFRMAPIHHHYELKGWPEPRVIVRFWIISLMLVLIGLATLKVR
smiles,measurement,setting,value
CCCCCCCCCC(=O)O[C@@H]1[C@H](OC)[C@@H]([C@@H](O[C@H]2OC(C(=O)N[C@H]3CCC[C@@H](C)NC3=O)=C[C@H](O)[C@@H]2O)C(N)=O)O[C@H]1n1ccc(=O)[nH]c1=O [SQ641],IC50 against translocase I,[1],0.55 µg/mL
same,MIC,"[2]; H37RV, MTB strain H37Rv",1 µg/mL
same,MIC90,[2]; MTB,4 µg/mL
same,MIC,[2]; MTB strain 16,4 µg/mL
same,MIC,[2]; MTB strain 113,1 µg/mL
same,MIC,[2]; MTB strain 158,4 µg/mL
same,MIC,[2]; MTB strain 606,4 µg/mL
same,MIC,[2]; MTB strain 847,4 µg/mL
same,MIC,[2]; MTB strain 1351,1 µg/mL
same,MIC,[2]; MTB strain 1407,2 µg/mL
same,MIC,[2]; MTB strain 1498,4 µg/mL
same,MIC,[2]; MTB strain 1665,2 µg/mL
same,MIC,[2]; MTB strain 1703,4 µg/mL
same,MIC,[2]; MTB strain 1760,8 µg/mL
same,MIC,[2]; MTB strain 1782,2 µg/mL
same,MIC,[2]; MTB strain 1901,4 µg/mL
same,MIC,[2]; MTB strain 1921,4 µg/mL
same,MIC,[2]; MTB strain 2224,4 µg/mL
same,MIC,[2]; MTB strain 2554,4 µg/mL
same,MIC,[2]; MTB strain 2693,8 µg/mL
same,MIC,[2]; MTB strain 8266,2 µg/mL
same,MIC,[2]; MTB strain 8642,4 µg/mL
same,MBC/MIC ratio,[3],1
same,Bacterial disintegration / clearance of MTB cultures,[4]; MTB cultures,rapid bacterial disintegration
same,Turbidity of MTB cultures,[4]; within 2 days of exposure,marked fall in the turbidity
same,PAE (post-antibiotic effect),"[5]; 4 μg/ml, 2 hr of exposure",55 h
same,PAE of SQ641 relative to INH,[5]; each at 4 μg/ml,over 3 times
same,MIC,"[6]; Mycobacteroides abscessus, drug alone",0.5 µg/mL
same,ΣFIC,[6]; SQ641 + RFB,0.25
same,ΣFIC,[6]; SQ641 + SM,0.375
same,MIC Combination,[6]; combination SQ641 + RFB,0.062 µg/mL
same,MIC Combination,[6]; combination SQ641 + SM,0.062 µg/mL
same,Synergy with other anti-mycobacterial drugs,[7],"synergistic activity with EMB, the new diamine antitubercular SQ109, and streptomycin against MTB"
same,ΣFIC,[7]; SQ641 + EMB,0.156
same,Mean RLU on day 7,[8]; 4 μg/ml,4707 RLU
same,Mean RLU on day 7,[8]; 8 μg/ml,2755 RLU
same,Routes by which replication of MTB in lungs was prevented (vs early control),[9],all but intranasal
